For orientation: IC50 means the concentration needed to halve the response being measured.

This passage reports IC50 results from patent publication US7655662B2, “(Indazol-5-yl)-pyrazines and (1,3-dihydro-indol-2-one)-pyrazines for treating glaucoma and controlling intraocular pressure” (Alcon Research, Ltd., priority 2005, dated 2010).

Each structure is given as a SMILES string. Structures can show the parent of a compound that is named as a salt.

For the experiment, the target named is T1, Human recombinant Rho kinase (ROKα/ROCK-II, (aa 11-552)) (Homo sapiens, UniProt O75116).
T1 construct: Human recombinant Rho kinase (ROKα/ROCK-II, (aa 11-552), human active); purchased Upstate Biotechnology Co., Lake Placid, N.Y. 14-451
T1 sequence (O75116 11-552): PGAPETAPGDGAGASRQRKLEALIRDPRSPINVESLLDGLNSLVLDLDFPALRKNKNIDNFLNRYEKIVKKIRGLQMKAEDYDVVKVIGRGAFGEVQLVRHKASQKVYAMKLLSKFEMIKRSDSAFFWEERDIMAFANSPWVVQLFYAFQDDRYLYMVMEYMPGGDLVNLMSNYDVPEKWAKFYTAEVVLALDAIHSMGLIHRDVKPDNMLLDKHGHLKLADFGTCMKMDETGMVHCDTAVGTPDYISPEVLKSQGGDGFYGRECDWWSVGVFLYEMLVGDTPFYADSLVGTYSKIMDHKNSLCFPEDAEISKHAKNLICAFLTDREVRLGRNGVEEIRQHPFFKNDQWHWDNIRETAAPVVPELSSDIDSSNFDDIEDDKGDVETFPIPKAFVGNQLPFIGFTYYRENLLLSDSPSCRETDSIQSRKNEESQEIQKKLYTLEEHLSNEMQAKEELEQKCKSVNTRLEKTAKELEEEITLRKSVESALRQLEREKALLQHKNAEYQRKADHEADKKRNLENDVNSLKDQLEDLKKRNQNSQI
Kind of experiment: Rho kinase II (ROCK II) IMAP fluorescence polarization inhibition assay. In kind it is biochemical. The note with it: IMAP ROCK II kit; substrate 200 nM, ATP 10 μM; 60 min at 23° C.; read-out: Rho kinase II Binding Data IC50. The procedure: The ability of certain compounds of Formula (I) to inhibit rho kinase is evaluated by means of in vitro assays. Human recombinant Rho kinase (ROKα/ROCK-II, (aa 11-552), human active, catalog #14-451, Upstate Biotechnology Co., Lake Placid, N.Y.), MgCl2/ATP cocktail, and enzyme substrate (Upstate) is used.
Fluorescence polarization assays are performed using a Biomek 2000 Robotic Workstation (Beckman Instruments, Palo Alto, Calif.) in a 96-well plate format. The assays are performed utilizing the IMAP ROCK II kit (Molecular Devices, Sunnyvale, Calif.) as follows. Substrate and ATP concentrations used are 200 nM and 10 μM, respectively, while the enzyme concentration is 3.96×10^−3 units per well. The substrate, enzyme, and ATP dilutions are made with the reaction buffer provided by the vendor. Test compounds are diluted in 10:10 DMSO-ethanol (vol/vol). For the actual assays, the various components are added into black, clear bottom, 96-well plates (Costar, Corning, N.Y.) in a final volume of 20 μl per well. After the enzyme reaction (60 min at 23° C.), 60 μl of the binding solution (IMAP kit, provided by vendor) is added per well and incubated for an additional 30 minutes in the dark at 23° C. Fluorescence polarization of the reaction mixtures is then measured on the Analyst™ HT instrument (Molecular Devices, Sunnyvale, Calif.).
The data generated are then analyzed using a non-linear, iterative, sigmoidal-fit computer program purchased from IDBS (Emeryville, Calif.) and as previously described (Sharif et al., J Pharmacol. Exp. Ther. 286:1094-1102, 1998; Sharif et al., J Pharmacol. Expt. Ther. 293:321-328, 2000; Sharif et al., J Ocular Pharmacol. Ther. 18:141-162, 2002a; Sharif et al., J Pharmac. Pharmacol. 54:539-547, 2002b) to generate the inhibition constants for the test compounds.
(In general: In fluorescence polarisation assays a small probe gives low polarisation when free and higher when bound to something large.)
Take `Cc1n[nH]c2ccc(-c3cncc(NC[C@@H](N)Cc4ccccc4)n3)cc12` (single isomer, unassigned) [Example 2]: the IC50 turned out to be 0.057 µM.

With `Cc1n[nH]c2ccc(-c3cncc(NC[C@@H](N)Cc4ccccc4)n3)cc12` [Example 1, (S)-N^1-[6-(3-Methyl-1H-indazole-5-yl)-pyrazin-2-yl]-3-phenyl-propane-1,2-diamine dihydrochloride], the concentration for half-maximal inhibition (IC50) is 0.19 µM. Under `Cc1n[nH]c2ccc(-c3cncc(NCC(N)Cc4cc5ccccc5[nH]4)n3)cc12` (stereo not drawn) [Example 3] stands 0.59 µM.
